Here are results for two molecules from US6551774B1, “Diagnostic methods for conditions associated with elevated cellular levels of telomerase activity” (Board of Regents, The University of Texas System, priority 1992, dated 2003).

Test [1] deals with IMR-90 human lung fibroblasts. In words: Proliferative lifespan of IMR-90 fibroblasts fed oligonucleotides (Example 1). The class given is cell-based. An excerpt: The efficacy of the CTO-12 oligonucleotide (5′-[…]-3′ Seq. ID No. 2) to reduce telomere shortening associated with cellular senescence (FIG. 1) was studied using target cells cultured under standard cell culture conditions in minimal essential medium supplemented with 10% fetal calf serum. The cells were subcultivated every four days by trypsinization upon reaching confluency and were fed new medium at subcultivation or every two days, whichever came first. Cells at various population doubling levels were seeded at 10,000 cells per well and fed medium containing oligonucleotides at various concentrations. oligonucleotides studied were the cytidine-rich terminal oligonucleotide (CTO-12), guanidine-rich terminal oligonucleotide-12 bp (GTO-12, having the sequence 5′-[…]-3′ (SEQ ID NO:19), and a 12 base pair randomer with a random nucleotide in every position. As an additional control, cells were fed identical medium without oligonucleotide. Cells were fed oligonucleotide every 48 hours from 10×stocks. (Such oligonucleotides may be modified to enhance stability, e.g., with phosphorothioates, dithioate and 2-O-methyl RNA.) In the case of phosphorothioates it would be desirable to use longer CTO primers such as 5′-[…]-3′(SEQ ID NO:20), 5′-[…]-3′(SEQ ID NO:21), or 5′-[…]-3′(SEQ ID NO:22). […]

The next test concerns IMR-90 lung fibroblasts. In words: Life span of IMR-90 lung fibroblasts treated with phosphodiester CTO (Example 11). The test is classed as cell-based, human. On the procedure: Referring to FIG. 14, IMR-90 lung fibroblasts TRFat PDL 30 were treated with 10 μM, 30 μM or 100 μM phosphodiester CTO or with only media addition (control). The cells were cultured in medium containing regular defined supplemented calf serum. The cells were passaged in 24 well dishes and subcultivated by trypsinization upon reaching confluency at 25,000 cells per well. The cells were fed medium containing oligonucleotides at various concentrations daily. As a control, cells were fed identical medium without oligonucleotides. As is illustrated in FIG. 14, there was approximately a 12-15% extension of total life span with CTO. In these experiments the control cells divided approximately 15-18 times during the experiment, whereas the treated cells divided 23-26 times. IMR-90 telomeres shorten approximately 50 b.p. per division and the TRF length of the control IMR-90 fibroblasts at senescence was approximately 9 kb. Since the 100 μM CTO-treated IMR-90 cells senesced at PDL 55, the predicted difference in the rate of TRF loss between the control and the 100 μM CTO (9 kb vs 9.4 kb) is too small to be resolved using current techniques.

Test [2] deals with HME31E6 cells. In words: TRF shortening in HME31E6 cells cultured with CTO (Example 10). The test is classed as cell-based, human. The note with it: 3, 10, 30 and 100 μM, between PDL 36 and 50. The source says: As in Example 1, the change in proliferative lifespan and rate of telomere shortening in cultured mammary epithelial cells treated with the indicated amounts of CTO (occasionally referred to as C-Rich Terminal Repeat (CTR)) versus control random oligonucleotides. Normal human mammary epithelial cells from a donor (31) were infected with the E6 gene of human papilloma virus 16. This gene product binds p53 protein and permits HME31 cells to have extended life span by proliferating from PDL 42 to PDL 62 when crisis occurs. During this extended lifespan period the TRFs shorten from an average of approximately 5 kb to 2.5 kb (compare in FIG. 12 HME31 PD 40 to HME31E6 PD 68).
As controls the cells were cultured without oligonucleotides (nil) or with 30 μM random oligonucleotide. […] This is most easily seen by examining the subpopulation of telomere TRFs that migrate more slowly than the rest, giving a discrete trailing band. Cells were maintained in logarithmic growth with medium changed and fresh oligonucleotide added three times per week.

Test [3] has as its system MDA 157 human breast cancer cells. In words: Proliferation of MDA 157 cancer cells fed oligonucleotides (Example 2). The test is classed as cell-based. Particulars: 1.0 μM CTO-12. The method, then:
Specifically, MDA 157 human breast cancer cells with an immortal phenotype were seeded at 10,000 cells per well in 12 well tissue culture dishes and fed medium only or medium supplemented with GTO-12 (at 1.0 μM, 0.1 μM, and 0.01 μM). […] Cells fed the GTO-12 oligonucleotide, at 1.0 μM, however, ceased to proliferate after less than 10 doubling. […] The lack of effect of the G+C mixture may reflect the CTO-12 oligonucleotide, competing with or base pairing with the GTO-12 oligonucleotide, this preventing its inhibitory effect on the cancer cell telomerase.

Test [4] deals with HME31E6 cells. In words: Replicative lifespan of HME31E6 cells cultured with CTR (Example 10). The class given is cell-based, human. Particulars: 30 μM and 100 μM. The method, then: Human mammary epithelial cells expressing HPV16 E6 bypass M1 and have extended replicative lifespan. HME31 Cells normally senesce at PDL 42-45. When expressing […] they will bypass M1 and divide until they reach crisis (M2) at PDL 53-62. The TRFs in HME31 (E6) cells at PDL 40 are approximately 5-6 Kb while at PDL 62 they are 3-4 Kb (see FIG. 12). […] As controls, the cells were cultured without oligonucleotide (control), or with a 30 μM random oligonucleotide with the base content matched to the CTR oligonucleotide. […] The control cells divided approximately 20 times during the experiment, whereas the CTR-treated cells divided at least 40-50 times.

Test [5] deals with Tetrahymena cells. Kind of test: Progeny formation (cycloheximide resistance) of Tetrahymena conjugated in the presence of analog. The test is classed as cell-based, Tetrahymena thermophila. Particulars: for % CHX-R / # CHX-R: first block for the analog; for # CHX-R: number of cycloheximide-resistant wells. On the procedure:
For analysis of cycloheximide (CHX) sensitivity of cells conjugated in the presence of analog, 50 ml cultures of each cell type were grown overnight in 2% PPYS, starved in Dryl's for 18 hours, mated (5×10^5 cells/ml) for 6 hours, then analog was added. Cells were allowed to complete mating in the presence of the analog. Twenty-four hours after mixing, cells were diluted in Dryl's solution, counted and plated at 1 cell per well of 96-well plates in 1% PPYS without analog. Cells were grown for 4 days in a humid chamber at 30° C., without shaking. Cells were then replica plated into 1% PPYS plus 15 μg/ml cycloheximide, allowed to grow for four days before scoring, and percent of CHX-resistant wells was calculated. Because generation of progeny expressing the cycloheximide marker requires successful production of a new macronucleus, cells whose macronuclear development was disrupted by the analog are killed in CHX.
This process involves de novo formation of new macronuclear telomeres in the progeny cells. Macronuclear development in ciliated protozoans such as Tetrahymena involves developmentally programmed, site-specific fragmentation of germline chromosomes into linear subchromosomes, whose ends are healed by de novo addition of telomeres. […] Because of the immediate requirement for telomere addition to fragmented DNA, it is possible that the latter process might be more sensitive to telomerase inhibition than telomere maintenance during vegetative growth. To test whether nucleoside analogs cause inhibition of macronuclear development due to a disruption of telomere formation, we mated two strains of Tetrahymena which are sensitive to cycloheximide, but whose progeny after mating are resistant to cycloheximide. Synchronized mated cells were treated with AZT at concentrations ranging from 10 μM to 5 mM for a period beginning just prior to when macronuclear development begins and continuing during macronuclear development (the period 6-24 hours after mating was initiated). […] In attempts to maximize the effect of AZT, cells were either refed at 6 hrs with 2% PPYS or Isobroth, or starved until 24 hrs (the duration of the AZT treatment). Such starvation arrests macronuclear development at an intermediate stage. When refed, macronuclear development would then be forced to proceed in the presence of the AZT. Control, unmated parental cells were also plated and exposed to drug.

For test [6], the target named is T1, human telomerase obtained from the tumor cell line 296 (Homo sapiens, UniProt O14746).
T1 construct: human telomerase obtained from the tumor cell line 296; endogenous in cells; host or cells: tumor cell line 296 (so in the source)
T1 sequence (O14746 whole entry): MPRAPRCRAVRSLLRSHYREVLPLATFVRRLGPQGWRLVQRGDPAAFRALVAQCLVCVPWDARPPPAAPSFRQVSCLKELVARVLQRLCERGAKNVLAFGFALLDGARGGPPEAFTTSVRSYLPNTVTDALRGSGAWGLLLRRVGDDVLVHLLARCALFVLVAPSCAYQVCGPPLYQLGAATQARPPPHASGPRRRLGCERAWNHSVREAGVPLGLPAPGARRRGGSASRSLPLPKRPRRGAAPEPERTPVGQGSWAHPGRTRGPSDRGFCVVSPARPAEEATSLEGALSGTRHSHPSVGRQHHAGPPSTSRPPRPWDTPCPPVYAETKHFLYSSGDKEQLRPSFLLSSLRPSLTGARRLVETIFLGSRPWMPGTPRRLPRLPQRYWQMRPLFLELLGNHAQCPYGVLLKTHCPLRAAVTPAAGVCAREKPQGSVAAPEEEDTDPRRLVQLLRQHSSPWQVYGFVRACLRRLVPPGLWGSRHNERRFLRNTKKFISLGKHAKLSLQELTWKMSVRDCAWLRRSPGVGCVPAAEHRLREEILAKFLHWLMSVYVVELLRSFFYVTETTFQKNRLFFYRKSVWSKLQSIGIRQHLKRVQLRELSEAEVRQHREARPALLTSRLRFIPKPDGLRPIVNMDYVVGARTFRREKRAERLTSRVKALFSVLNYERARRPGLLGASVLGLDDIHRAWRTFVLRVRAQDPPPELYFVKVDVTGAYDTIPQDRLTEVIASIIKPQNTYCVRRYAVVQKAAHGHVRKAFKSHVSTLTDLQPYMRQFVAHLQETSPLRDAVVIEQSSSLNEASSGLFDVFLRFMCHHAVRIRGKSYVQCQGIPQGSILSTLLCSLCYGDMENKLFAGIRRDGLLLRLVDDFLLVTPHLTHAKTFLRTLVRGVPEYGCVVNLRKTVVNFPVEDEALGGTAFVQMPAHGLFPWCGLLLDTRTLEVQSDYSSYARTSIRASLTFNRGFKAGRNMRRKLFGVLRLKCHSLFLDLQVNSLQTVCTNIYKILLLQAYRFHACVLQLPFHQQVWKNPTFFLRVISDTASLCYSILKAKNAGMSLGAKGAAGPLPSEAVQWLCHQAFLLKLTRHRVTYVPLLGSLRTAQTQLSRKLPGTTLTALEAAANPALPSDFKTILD
T1 sequence (O60832 whole entry partner): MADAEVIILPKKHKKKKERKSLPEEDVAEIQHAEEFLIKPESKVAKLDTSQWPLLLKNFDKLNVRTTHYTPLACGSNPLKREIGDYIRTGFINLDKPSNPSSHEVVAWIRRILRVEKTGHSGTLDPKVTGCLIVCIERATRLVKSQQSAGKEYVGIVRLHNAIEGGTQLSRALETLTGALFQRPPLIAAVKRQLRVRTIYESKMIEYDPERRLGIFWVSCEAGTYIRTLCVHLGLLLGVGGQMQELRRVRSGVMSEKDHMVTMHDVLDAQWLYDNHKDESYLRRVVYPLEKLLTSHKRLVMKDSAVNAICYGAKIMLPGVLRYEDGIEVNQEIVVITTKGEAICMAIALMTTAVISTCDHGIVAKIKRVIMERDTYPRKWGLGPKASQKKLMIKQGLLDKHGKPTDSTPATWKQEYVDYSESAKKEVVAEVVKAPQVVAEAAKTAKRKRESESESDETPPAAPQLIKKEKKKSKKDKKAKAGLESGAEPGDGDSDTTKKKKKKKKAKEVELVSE
T1 sequence (Q9NPE3 whole entry partner): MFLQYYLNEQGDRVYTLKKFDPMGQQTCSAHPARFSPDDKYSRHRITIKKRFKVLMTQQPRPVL
T1 sequence (Q9NX24 whole entry partner): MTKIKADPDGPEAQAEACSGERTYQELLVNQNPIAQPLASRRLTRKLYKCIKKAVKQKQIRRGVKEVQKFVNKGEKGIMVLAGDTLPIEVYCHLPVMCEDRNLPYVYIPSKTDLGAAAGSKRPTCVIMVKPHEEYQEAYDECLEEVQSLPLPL
T1 sequence (Q9NY12 whole entry partner): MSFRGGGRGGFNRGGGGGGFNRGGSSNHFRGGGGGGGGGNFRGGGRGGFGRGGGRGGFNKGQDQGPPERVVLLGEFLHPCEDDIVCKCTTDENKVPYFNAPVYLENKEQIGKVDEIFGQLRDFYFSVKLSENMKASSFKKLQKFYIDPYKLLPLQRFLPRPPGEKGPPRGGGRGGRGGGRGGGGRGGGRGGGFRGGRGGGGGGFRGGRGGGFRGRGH
In words: Inhibition of human telomerase from a tumor cell line. The test is classed as biochemical.

Test [7] deals with Tetrahymena cells. Kind of test: Telomere length in vegetatively grown Tetrahymena by Southern blot. The class given is cell-based, Tetrahymena thermophila. Particulars: up to 1 mM, 5 days of subculturing (15-20 cell generations), 2% PPYS. On the procedure: For analysis of macronuclear DNA from cultures containing the nucleoside analog AZT (Sigma), or controls lacking analog, at various timepoints during vegetative divisions, cells from stationary stock cultures were inoculated into 25 ml thymine-deficient Iso-sensitest broth (‘Isobroth’, Oxoid USA) in 250 ml flasks. Cultures were incubated at 30° C. with shaking (100 rpm) for 48 hours. Cells were counted and plated at 1000 cells/1.5 ml in 24-well plates (Falcon) and grown at 30° C., without shaking, for 48 hours. 5 μl of these log phase cells were used to inoculate 1 ml cultures (Isobroth) containing varied concentrations of nucleoside analog. Thereafter, every 2-4 days cells were transferred, either 5 μl per well, or 1-3 μl using a multi-pronged replicator into fresh 1 ml broth containing AZT. Remaining cells were pelleted and stored at −80° C. until processed for DNA analysis.
For analysis of macronuclear DNA from vegetative cultures containing the nucleoside analogs Ara-G (Calbiochem), ddG (Calbiochem), or ddI (Calbiochem), or controls lacking analog, stock cultures were grown overnight in 2% PPYS as described. Cells were counted and plated at 100 cells/2 ml in 2% PPYS containing varied amounts of analog, 1% DMSO (Fisher) (as a control for ddG and Ara-G), or 2% PPYS alone. Cells were replica plated into fresh medium every 2-6 days, and remaining cells were pelleted and stored at −80° C. until processed for DNA analysis.
For analysis of macronuclear DNA from vegetative cultures containing d4T (Sigma) or control lacking the analog, stock cultures (SB210 VI) were grown overnight in Isobroth as described. Cells were then counted and duplicate cultures inoculated at 500 cells/5 ml Isobroth in 50 ml conical tubes, and grown at 30° C., shaking 80 rpm. 500-2000 cells were transfered to fresh broth every 2-4 days, and the remainder pelleted and stored at −80° C. until processed for DNA analysis.
Restriction digests, agarose gel electrophoresis, transfer of DNA to Nytran filters (Schleicher and Schuell), and hybridization with ^32P-nick-trapplated or random-primed probes were carried out using standard procedures (Maniatis et.al. 1989). Telomere length was analyzed as described previously for Tetrahymena [Larson 50 Cell, 477, 1987].
Telomere lengths in cells grown in the presence of the different analogs were monitored by Southern blot analysis of DNA samples extracted at a series of time points during the subculturings. The telomeres of cells grown vegetatively in 1 and 5 mM AZT in 2% PPYS medium were reproducibly shortened by up to an average of 170 base pairs compared with the control cultures grown in 2% PPYS in the absence of the drug (FIG. 21A and B). This shortening of telomeres occured in a concentration-dependent manner (FIG. 21B), with at least 50% of the maximal shortening effect occurring by 10 μM AZT, the lowest concentration tested.

Test [8] deals with lymphoma cell line JY 616. Kind of test: Telomere length of JY lymphoma cells by Southern blot. The test is classed as cell-based, human. Particulars: 10 μM, 9 and 10 weeks. The method, then:
The first lane is DNA from the cells at the start of the experiment, the second is the RPMI control, and the third is cells treated with AZT for the times indicated.
Cells were treated over a 10 week period with either 10 μM ddG in 0.01% DMSO or medium with 0.01% DMSO only.
The effect of the agents on telomerase activity in intact cells was then studied utilizing the lymphoma cell line JY 616 which were maintained in RPMI 1640 with […] Hepes, 10% FCS, and penicillin/streptomycin (Gibco). The cells were cultured in 6-well plates (Falcon) with 5.0 ML of medium per well in duplicate. Cells were passaged every 7-10 days which corresponded to 5-7 mean population doublings (MPD), and seeded at 3×10^4 cells per well into fresh medium containing analog or control. Cell viability was monitored prior to harvest utilizing trypan blue stain (Gibco) during counting with a hemocytometer. The average ratio of stained: unstained cells (dead:alive) was […]. The intactness of the DNA was measured on a parallel gel by observing its mobility in a gel prior to digestion by a restriction enzyme.

5′-CCCTAACCCTAA-3′ [CTO-12]: the “doublings of continued proliferation more than control cells” value in test [1] (1.0 μM oligonucleotide, cells seeded at PD45) is on record as “approximately 10 doubling”. In addition, the “population doubling at which replicative senescence was reached” value in test [1] (CTO-12 at less than 1.0 μM (0.1 μM), seeded at PD45) is given as “about 52 population doubling”. Also, the “number of cell divisions during the experiment” value was 23-26 times in the test with IMR-90 lung fibroblasts (10 μM, 30 μM or 100 μM, from PDL 30) and 40-50 times in the test with HME31E6 cells [4] (started at PDL 36, defined medium without serum). The “extension of total life span” value in the test with IMR-90 lung fibroblasts (10 μM, 30 μM or 100 μM, from PDL 30, fed daily) is reported as 12-15%. In the test on IMR-90 lung fibroblasts (100 μM), this molecule had a PDL at senescence of 55 PDL. Besides, the “TRF shortening compared to nil control and 30 μM random oligonucleotide” value in the test on HME31E6 cells [2] is “dose related retardation of TRF shortening”. In addition, the proliferation phenotype entry in test [3] is “continued to express the immortal phenotype”. Further, in the test on HME31E6 cells [4] (started at PDL 36), the “replicative lifespan compared to control and 30 μM random oligonucleotide” value is listed as “dose-related extension of the replicative lifespan”.
Turning to `Nc1nc2c(ncn2[C@H]2CC[C@@H](CO)O2)c(=O)[nH]1` [ddG], the figures for the “% CHX-R” value in the test with Tetrahymena cells [5] (0.001 mM analog (head prints MM)), in the test on Tetrahymena cells [5] (0.1 mM analog (head prints MM)) and in the test with Tetrahymena cells [5] (1.0 mM analog (head prints MM)) were 84%, 85% and 77%, respectively. For the same molecule, the “# CHX-R” value in the test with Tetrahymena cells [5] (0.001 mM analog) amounted to 86; in the test on Tetrahymena cells [5] (0.1 mM analog), 73; in the test on Tetrahymena cells [5] (1.0 mM analog), 51. In the test on Tetrahymena cells [5] (analog present during conjugation), the “irreversible disruption of macronuclear development” value is “little or no irreversible disruption”. In test [6], the “inhibition of human telomerase” value is on record as “effective inhibitors of human telomerase”. Besides, the “telomere length compared with control cultures” value in the test with Tetrahymena cells [7] is “no changes in telomere length”. Besides, the “telomere length compared to the DMSO control” value in [8] is “decrease in telomere length”.
